Structures can show the parent of a compound that is named as a salt. Where two headings read alike, the source gives them in different places.
Key:
[1] = Co-administration of paroxetine and the subject combination in healthy volunteers (Example 3)
Description: Co-administration of the SSRI paroxetine and the subject combination was studied in 29 healthy volunteers.

[2] = Pharmacokinetics after administration of the subject combination (steady state); details: for apparent elimination half-life: bupropion metabolites
[3] = Pharmacokinetics of the subject combination in CYP2D6 poor metabolizers (Example 2)
Description: Approximately 7 to 10% of Caucasians and 3 to 8% of African Americans lack the capacity to metabolize CYP2D6 substrates and are classified as poor metabolizers.

[4] = Pharmacokinetics of the subject combination in moderate renal impairment (Example 1); details: moderate renal impairment (GFR 30-60 mL/min)
[5] = Food effect on pharmacokinetics of the subject combination; type: in vivo, human; details: subject combination administered with food
[6] = human, in vivo
[7] = cited from earlier work; for incidence of sedation (MOAA/S score <5): treatment-resistant depression

Structure (SMILES): Fc1ccc([C@@H]2CCNC[C@H]2COc2ccc3c(c2)OCO3)cc1 [paroxetine]
- increase in overall exposure of paroxetine when co-administered with the subject combination ([1]; human, in vivo): 1.2 fold

Structure (SMILES): CC(NC(C)(C)C)C(O)c1cccc(Cl)c1 (stereo not shown) [erythrohydroxybupropion]
- apparent elimination half-life [2]: ~44 h

Structure (SMILES): COc1ccc2c(c1)[C@]13CCCC[C@@H]1[C@H](C2)N(C)CC3 [dextromethorphan, morphinan, 3-methoxy-17-methyl-, (9α, 13α, 14α), hydrobromide monohydrate]
- steady state plasma concentrations compared with non-poor metabolizers ([3]; 12 poor metabolizers in efficacy trials): generally higher
- increase in AUC0-12 compared to extensive metabolizers ([3]; CYP2D6 poor metabolizers): ~3.4 fold
- increase in Cmax compared to extensive metabolizers ([3]; CYP2D6 poor metabolizers): ~3 fold
- increase in mean elimination half-life versus dextromethorphan given without bupropion ([2]; 8 days of subject combination, extensive metabolizers): approximately 3 fold
- median Tmax ([2]; after administration of the subject combination): about 3 hours
- dose proportionality of AUC and Cmax at steady state ([2]; co-administered with bupropion, dextromethorphan 30 to 60 mg, bupropion 75 to 150 mg): nonlinear pharmacokinetics
- mean elimination half-life ([2]; human, in vivo): 22 h
- increase in overall exposure when paroxetine is co-administered with the subject combination ([1]; healthy volunteers): 2.5 fold
- increase in exposure versus matched controls with normal renal function [4]: approximately 2 fold
- reduction in clearance versus matched controls with normal renal function [4]: 50%
- decrease in AUC0-12 with food [5]: 14%

Structure (SMILES): C[C@H]1NC(C)(C)CO[C@]1(O)c1cccc(Cl)c1 [hydroxybupropion]
- apparent elimination half-life [2]: approximately 35 hours

Structure (SMILES): CC(NC(C)(C)C)C(=O)c1cccc(Cl)c1.Cl (racemic) [bupropion, (±)-1-(3-chlorophenyl)-2-[(1,1-dimethylethyl)amino]-1-propanone hydrochloride]
- increase in overall exposure when paroxetine is co-administered with the subject combination ([1]; human, in vivo): no effect
- increase in exposure versus matched controls with normal renal function [6]: approximately 2 fold
- reduction in clearance versus matched controls with normal renal function [6]: 50%

Structure (SMILES): CN[C@]1(c2ccccc2Cl)CCCCC1=O [esketamine, Esketamine]
- incidence of sedation (MOAA/S score <5) ([7]; 56 mg + oral AD, patients <65 years, fixed-dose study): 50%
- incidence of sedation (MOAA/S score <5) ([7]; 84 mg + oral AD, patients <65 years, fixed-dose study): 61%
- incidence of sedation (MOAA/S score <5) ([7]; 28 to 84 mg + oral AD, patients ≥65 years, flexible-dose study): 49%
- incidence of sedation (MOAA/S score<5) compared to placebo plus oral antidepressant ([7]; plus oral antidepressant, adults with MDD with acute suicidal ideation or behavior): higher incidence of sedation

Structure (SMILES): C[C@H](NC(C)(C)C)[C@@H](O)c1cccc(Cl)c1 [threohydroxybupropion]
- apparent elimination half-life [2]: ~33 h
